Details: 20 mmol/liter acetic acid-sodium acetate buffer pH 3.6, 40° C., 25 hr
From the text: The titanium oxide complex particles and the dihydroxyphenylpropionic acid obtained in Example 1 were mixed together in 1) a 20 mmol/liter acetic acid-sodium acetate buffer solution (pH=3.6), 2) a 20 mmol/liter MES buffer solution (manufactured by Dojindo; pH=6.0), and 3) a 20 mmol/liter HEPES buffer solution (manufactured by Dojindo; pH=8.1) so that the final concentration of the titanium oxide complex particles and the final concentration of the dihydroxyphenylpropionic acid in the resultant mixed solutions were 2% and 50 mmol/liter, respectively. The total volume of each of the mixed solution was adjusted to 0.8 ml.
The adjusted solutions were stirred at 40° C. for 25 hr. For each solution, an absorption spectrum was measured in an ultraviolet-visible range (200 to 600 nm) with an ultraviolet-visible spectrometer.

Structure (SMILES): O=C(O)CCc1ccc(O)c(O)c1 [dihydroxyphenylpropionic acid]
- Change in absorption spectrum versus zero hr: little or no change was observed in the absorption spectrum

Source: patent US20110137235A1, “ULTRASONIC CANCER THERAPY ACCELERATOR” (TOTO Ltd., priority 2008, published 2011)
